Test results published in patent US20090137600A1, “Antiplatelet agent and process for producing the same” (priority 2004, published 2009).
Entries after “also recorded” stand apart in the source; their conditions may differ. Where two headings read alike, the source gives them in different places.

Legend:
[1] = Crystal stability on storage at 25° C. and 0%, 52% or 93% RH for 3 days; assay type: physicochemical; parameters: key to Crystal form (change): No: No change; Yes: Some change
Protocol: Compounds (1a), (1b), and (1c) as well as various salts of Compound (1a) produced in the Examples as described above were stored at 25° C. and at a relative humidity of 0%, 52%, or 93% for 3 days to evaluate change in weight and crystal form. Change in crystal form was measured in the case of fumarate at a low humidity, and in the case of Compound (1a) and its citrate at a high humidity. The salts of Compound (1a) were produced according to the method of Example 3.

[2] = system: human platelet rich plasma (PRP), aggregation induced by collagen; experiment: Suppression of collagen-induced platelet aggregation in human PRP; assay type: cell-based
Protocol: (§1) After removing the PRP in the upper layer, the lower layer was further centrifuged at 1600 g for 10 minutes to separate the platelet poor plasma (PPP). 1 μL of the solution of Compound (I) or Comparative Examples 1 to 3 was added to 200 μL of PRP, and the mixture was allowed to stand at 37° C. for 2 minutes. Platelet aggregation was then induced by adding 2 μL of collagen to the mixture. Platelet aggregation rate was measured by using PAM-12C (SSR Engineering).

[3] = system: guinea pig platelet rich plasma (PRP), aggregation induced by collagen; experiment: Suppression of collagen-induced platelet aggregation in guinea pig PRP; assay type: cell-based; settings: Cavia porcellus
Protocol: as §1

COX-1 = biological target: T1, COX-1 (Ovis aries, UniProt P05979); experiment: Inhibition of cyclooxygenase-1 (COX inhibitor screening assay kit, PGF2α ELISA); assay type: biochemical; settings: for IC50 for COX-1 relative to IC50 of platelet aggregation suppression: ratio COX-1 IC50 / platelet aggregation IC50
T1 sequence (P05979 25-600): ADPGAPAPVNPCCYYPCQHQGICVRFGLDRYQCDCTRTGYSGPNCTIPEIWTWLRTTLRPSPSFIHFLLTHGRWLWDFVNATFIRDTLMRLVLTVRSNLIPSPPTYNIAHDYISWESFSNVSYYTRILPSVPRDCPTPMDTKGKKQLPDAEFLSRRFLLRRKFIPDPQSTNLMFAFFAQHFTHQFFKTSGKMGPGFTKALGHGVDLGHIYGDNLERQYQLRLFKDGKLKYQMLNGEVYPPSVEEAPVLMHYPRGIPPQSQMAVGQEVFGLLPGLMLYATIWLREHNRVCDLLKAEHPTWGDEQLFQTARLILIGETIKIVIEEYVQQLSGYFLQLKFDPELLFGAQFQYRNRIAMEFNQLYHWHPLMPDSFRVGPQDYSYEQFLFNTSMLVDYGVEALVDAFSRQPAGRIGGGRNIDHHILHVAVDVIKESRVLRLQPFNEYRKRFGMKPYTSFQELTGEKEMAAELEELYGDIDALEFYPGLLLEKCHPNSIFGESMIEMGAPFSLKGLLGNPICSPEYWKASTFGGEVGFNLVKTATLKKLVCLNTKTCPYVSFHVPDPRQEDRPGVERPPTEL
Protocol: (§2) Screening assay kit for COX inhibitor (Cayman Chemical Company, Catalog Nos. 560101 and 560121) were used to measure inhibitory activity of each compound for COX-1 and COX-2.
(§3) Reaction buffer, heme, arachidonic acid, SnCl2, EIA buffer, wash buffer, prostaglandin (PG) screening EIA standard, PG screening acetylcholinesterase (AchE) tracer ([…]), and PG screening EIA antiserum were prepared before the measurement.
(§4) The reaction solution containing various concentration of the compound of the Examples and COX-1 or COX-2 was allowed to stand at 37° C. for 10 minutes. 10 μL of arachidonic acid was added, and the reaction solution was allowed to stand at 37° C. for 2 minutes. After the reaction, 50 μL of 1N hydrochloric acid was added to cease the reaction, and 100 μL of SnCl2 solution was added, and the reaction solution was allowed to stand at room temperature for 5 minutes.
(§5) 50 μL of an antiserum (rabbit anti-PGF2α antibody) was added to each well of a 96 well plate which had been coated with mouse anti-rabbit IgG, and to each well was added 50 μL of a 2000-fold dilution of the PGF2α producing reaction solution, and then, 50 μL of the AchE tracer. The reaction mixture was allowed to stand at room temperature for 18 hours. The wells were washed 5 times with the wash buffer to remove the excessive AchE tracer, and 200 μL of Ellman reagent was added. After allowing to stand in a dark room for 60 minutes, the absorbance was measured at 405 nm.
(§6) Standard curve was depicted by using PG screening EIA standard, and amount of the PGF2α produced was determined from the absorbance.

COX-2 = biological target: T2, COX-2 (Homo sapiens, UniProt P35354); experiment: Inhibition of cyclooxygenase-2 (COX inhibitor screening assay kit, PGF2α ELISA); assay type: biochemical; settings: for IC50 for COX-2 relative to IC50 of platelet aggregation suppression: ratio COX-2 IC50 / platelet aggregation IC50
T2 sequence (P35354 18-604): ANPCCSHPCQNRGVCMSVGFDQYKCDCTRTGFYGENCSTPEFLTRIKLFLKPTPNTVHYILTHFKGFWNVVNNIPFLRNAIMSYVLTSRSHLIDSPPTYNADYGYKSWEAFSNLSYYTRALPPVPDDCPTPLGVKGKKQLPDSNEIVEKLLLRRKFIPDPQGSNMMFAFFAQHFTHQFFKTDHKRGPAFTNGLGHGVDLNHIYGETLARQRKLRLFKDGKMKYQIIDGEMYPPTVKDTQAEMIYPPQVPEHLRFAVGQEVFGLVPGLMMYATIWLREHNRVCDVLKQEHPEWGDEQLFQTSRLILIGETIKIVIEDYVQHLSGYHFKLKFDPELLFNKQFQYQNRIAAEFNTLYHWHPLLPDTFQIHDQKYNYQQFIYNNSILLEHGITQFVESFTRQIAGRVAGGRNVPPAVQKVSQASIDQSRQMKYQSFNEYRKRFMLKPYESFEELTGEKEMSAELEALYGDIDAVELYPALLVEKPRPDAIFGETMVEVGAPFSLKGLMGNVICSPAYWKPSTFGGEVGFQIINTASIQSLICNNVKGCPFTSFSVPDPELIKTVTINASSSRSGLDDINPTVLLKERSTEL
Protocol: as §2, §3, §4, §5, §6

[4] = system: platelet aggregation induced by collagen; experiment: Inhibition of platelet aggregation induced by collagen (general statement); assay type: cell-based; settings: species not given
[5] = system: platelet aggregation induced by collagen in PRP of guinea pig; experiment: Evaluation of oral absorption: ex vivo collagen-induced platelet aggregation in PRP of orally dosed guinea pig; settings: for ex vivo inhibition of the platelet aggregation by the collagen: general statement, no dose given
[6] = Solubility in water, JP1 solution and JP2 solution; assay type: physicochemical
thrombogenesis [7] = experiment: Thrombus model induced by iron chloride; assay type: in vivo
thrombogenesis [8] = experiment: Model of thrombosis induced by high shear stress; assay type: in vivo
[9] = Safety (general statement)
[10] = Stability under wet heat, dry heat and beam irradiation; assay type: physicochemical

| Compound | Crystal form (change) ([1]; 0% RH) | Weight change (%) ([1]; 0% RH) | Crystal form (change) ([1]; 52% RH) | Weight change (%) ([1]; 52% RH) | Crystal form (change) ([1]; 93% RH) | Weight change (%) ([1]; 93% RH) | IC50 (COX-1) | IC50 for COX-1 relative to IC50 of platelet aggregation suppression (COX-1) | IC50 (COX-2) | IC50 for COX-2 relative to IC50 of platelet aggregation suppression (COX-2) | inhibition of the platelet aggregation induced by collagen [4] | ex vivo inhibition of the platelet aggregation by the collagen [5] | solubility in water, JP1 solution and JP2 solution [6] | other results |
| --- | --- | --- | --- | --- | --- | --- | --- | --- | --- | --- | --- | --- | --- | --- |
| Citrate | No | 0.00% | No | 0.00% | Yes | 2.45% | – | – | – | – | – | – | – | – |
| COc1ccc(-n2nc(C(=O)N3CCN(C)CC3)cc2-c2ccccn2)nn1 [Compound (1a), [1-(6-methoxypyridazine-3-yl)-5-(pyridine-2-yl)-1H-pyrazole 3-yl](4-methylpiperazine-1-yl)methanone] | No^1) | −0.41% | No | 0.41% | Yes | 7.99% | 97 µM | 100 fold | > 50 µM | 100 fold | remarkable inhibition | strong ex vivo inhibition | – | IC50 [2]: 1.1 to 1.3 µM; IC50 [3]: 0.13 µM; oral absorbability [5]: excellent oral absorption |
| COc1ccc(-n2nc(C(=O)N3CCN(C)CC3)cc2-c2ccccn2)nn1.Cl [Compound (1b), [1-(6-Methoxypyridazine-3-yl)-5-(pyridine-2-yl)-1H-pyrazole-3-yl] (4-methylpiperazine-1-yl)methanone Monohydrochloride] | No | 0.20% | No | 0.58% | Yes | 11.54% | > 100 µM | 100 fold | > 100 µM | 100 fold | remarkable inhibition | strong ex vivo inhibition | good solubility | IC50 ([2]; Homo sapiens, Platelet): 0.86 µM; suppression of thrombogenesis (thrombogenesis [7]): remarkable suppression; inhibition of the thrombogenesis (thrombogenesis [8]): remarkable inhibition; safety [9]: no safety problems; platelet aggregation induced by collagen, ex vivo ([5]; guinea pig, 10 mg/kg oral, 1 hour after administration, collagen 0.8 μg to 2.5 μg): remarkably suppressed; oral absorbability ([5]; Monohydrochloride): excellent oral absorption; also recorded: sufficiently absorbed; also recorded: favorable oral absorbability |
| COc1ccc(-n2nc(C(=O)N3CCN(C)CC3)cc2-c2ccccn2)nn1 [Compound (1c), [1-(6-methoxypyridazine-3-yl)-5-(pyridine-2-yl)-1H-pyrazole-3-yl] (4-methylpiperazine-1-yl)methanone mono-1-tartrate] | No | −0.20% | No | 0.00% | No | 0.19% | – | – | – | – | remarkable inhibition | – | highly soluble | stability under wet heat, dry heat, and beam irradiation [10]: extremely stable |
| Fumarate | Yes^2) | −5.65% | No | 1.60% | No | 0.59% | – | – | – | – | – | – | – | – |
| Maleate | No | 0.00% | No | 0.40% | No | 0.39% | – | – | – | – | – | – | – | – |
